Measurements: patent publication US9938322B2, “β-hairpin peptidomimetics” (priority 2013, dated 2018)
Where a SMILES comes first, the peptide text is derived from it. [ ]: non-standard residue; d: D form. Tle = CC(C)(C)[C@H](N)C(=O)O; dDab = NCC[C@@H](N)C(=O)O; hSer = N[C@@H](CCO)C(=O)O; Orn = NCCC[C@H](N)C(=O)O; Dab = NCC[C@H](N)C(=O)O; Nva = CCC[C@H](N)C(=O)O

Tested on: human red blood cells (hRBC)
Test: Hemolysis of human red blood cells
Type: cell-based
Conditions: red cells of human, 1 h, 100
Experimental: Lyophilized peptides were weighed on a Microbalance (Mettler MT5) and dissolved in sterile water to a final concentration of 1 mg/ml. Stock solutions were kept at +4° C., light protected.
The peptides were tested for their hemolytic activity against human red blood cells (hRBC). Fresh hRBC were washed three times with phosphate buffered saline (PBS) and centrifuged for 10 min at 2000×g. Compounds (100 μg/ml) were incubated with 20% hRBC (v/v) for 1 h at 37° C. and shaking at 300 rpm. The final erythrocyte concentration was approximately 0.9×10^9 cells/ml. A value of 0% and 100% cell lyses, respectively, was determined by incubation of hRBC in the presence of PBS containing 0.001% acetic acid and 2.5% Triton X-100 in H2O, respectively. The samples were centrifuged, the supernatants were 8-fold diluted in PBS buffer and the optical densities (OD) were measured at 540 nm. The 100% lyses value (OD540H2O) gave an OD540 of approximately 0.5-1.0.
Percent hemolysis was calculated as follows: (OD540peptide/OD540H2O)×100%.

Compound | Hemolysis at 100 μg/ml
CCC[C@@H]1NC(=O)[C@H](CCN)NC(=O)[C@H](Cc2c[nH]c3ccccc23)NC(=O)[C@H](CCN)NC(=O)[C@@H](CCN)NC(=O)[C@H](CCCN)NC(=O)[C@H](CCN)NC(=O)[C@H](Cc2ccc(O)cc2)NC(=O)[C@H](CO)NC(=O)[C@H](CC(C)C)NC(=O)[C@@H]2CCCN2C(=O)[C@H]2CCCN2C(=O)[C@H](CO)NC(=O)[C@H](C)NC1=O [compound 30] (cyclo(LSY[Dab][Orn][dDab][Dab]W[Dab][Nva]AS[dP]P)) | 1%
CC(C)C[C@@H]1NC(=O)[C@@H]2CCCN2C(=O)[C@H]2CCCN2C(=O)[C@H](CO)NC(=O)[C@H](C)NC(=O)[C@H](Cc2ccc(O)cc2)NC(=O)[C@H](CCN)NC(=O)[C@H](Cc2c[nH]c3ccccc23)NC(=O)[C@H](CCN)NC(=O)[C@@H](CCN)NC(=O)[C@H](CCCN)NC(=O)[C@H](CCN)NC(=O)[C@H](Cc2ccc(O)cc2)NC(=O)[C@H](CO)NC1=O [compound 31] (cyclo(LSY[Dab][Orn][dDab][Dab]W[Dab]YAS[dP]P)) | 1%
COc1ccc(C[C@@H]2NC(=O)[C@H](CCN)NC(=O)[C@H](Cc3c[nH]c4ccccc34)NC(=O)[C@H](CCN)NC(=O)[C@@H](CCN)NC(=O)[C@H](CCCN)NC(=O)[C@H](CCN)NC(=O)[C@H](Cc3ccc(O)cc3)NC(=O)[C@H](CO)NC(=O)[C@H](CC(C)C)NC(=O)[C@@H]3CCCN3C(=O)[C@H]3CCCN3C(=O)[C@H](CO)NC(=O)[C@H](C)NC2=O)cc1 [compound 32] (cyclo(LSY[Dab][Orn][dDab][Dab]W[Dab]Y(Me)AS[dP]P)) | 1%
CC(C)C[C@@H]1NC(=O)[C@@H]2CCCN2C(=O)[C@H]2CCCN2C(=O)[C@H](CO)NC(=O)[C@H](C)NC(=O)[C@H](C(C)(C)C)NC(=O)[C@H](CCN)NC(=O)[C@H](Cc2c[nH]c3ccccc23)NC(=O)[C@H](CCN)NC(=O)[C@@H](CCN)NC(=O)[C@H](CCCN)NC(=O)[C@H](CCN)NC(=O)[C@H](Cc2c[nH]c3ccccc23)NC(=O)[C@H](CO)NC1=O [compound 33] (cyclo(LSW[Dab][Orn][dDab][Dab]W[Dab][Tle]AS[dP]P)) | 3.5%
CC(C)C[C@@H]1NC(=O)[C@@H]2CCCN2C(=O)[C@H]2CCCN2C(=O)[C@H](CO)NC(=O)[C@H](C)NC(=O)[C@H](Cc2c[nH]c3ccccc23)NC(=O)[C@H](CCN)NC(=O)[C@H](Cc2c[nH]c3ccccc23)NC(=O)[C@H](CCN)NC(=O)[C@@H](CCN)NC(=O)[C@H](CCCN)NC(=O)[C@H](CCN)NC(=O)[C@H](Cc2ccc(O)cc2)NC(=O)[C@H](CO)NC1=O [compound 34] (cyclo(LSY[Dab][Orn][dDab][Dab]W[Dab]WAS[dP]P)) | 1%
CC(C)C[C@@H]1NC(=O)[C@@H]2CCCN2C(=O)[C@H]2CCCN2C(=O)[C@H](CO)NC(=O)[C@H](C)NC(=O)[C@H](C(C)C)NC(=O)[C@H](CCN)NC(=O)[C@H](Cc2c[nH]c3ccccc23)NC(=O)[C@H](CCN)NC(=O)[C@@H](CCN)NC(=O)[C@H](CCCN)NC(=O)[C@H](CCN)NC(=O)[C@H](Cc2ccc(O)cc2)NC(=O)[C@H](CO)NC1=O [compound 35] (cyclo(LSY[Dab][Orn][dDab][Dab]W[Dab]VAS[dP]P)) | 1%
CC(C)C[C@@H]1NC(=O)[C@@H]2CCCN2C(=O)[C@H]2CCCN2C(=O)[C@H](CO)NC(=O)[C@H](C)NC(=O)[C@H](C(C)(C)C)NC(=O)[C@H](CCN)NC(=O)[C@H](Cc2c[nH]c3ccccc23)NC(=O)[C@H](CCN)NC(=O)[C@@H](CCN)NC(=O)[C@H](CCCN)NC(=O)[C@H](CCN)NC(=O)[C@H](Cc2ccc(O)cc2)NC(=O)[C@H](CO)NC1=O [compound 36] (cyclo(LSY[Dab][Orn][dDab][Dab]W[Dab][Tle]AS[dP]P)) | 1%
CC(C)C[C@@H]1NC(=O)[C@@H]2CCCN2C(=O)[C@H]2CCCN2C(=O)[C@H](CO)NC(=O)[C@H](C)NC(=O)[C@H](C(C)(C)C)NC(=O)[C@H](CCO)NC(=O)[C@H](Cc2c[nH]c3ccccc23)NC(=O)[C@H](CCN)NC(=O)[C@@H](CCN)NC(=O)[C@H](CCCN)NC(=O)[C@H](CCN)NC(=O)[C@H](Cc2ccc(O)cc2)NC(=O)[C@H](CO)NC1=O [compound 37] (cyclo(LSY[Dab][Orn][dDab][Dab]W[hSer][Tle]AS[dP]P)) | 1%
